Results reported in US20100317607A1, “USE OF COMPOUNDS FOR PREPARING ANTI-TUBERCULOSIS AGENTS” (INFECTIOUS DISEASE RESEARCH INSTITUTE, priority 2007, published 2010).
In brackets after ≈: the same amount, converted by molar mass. Counter-ions that a name gives are not always drawn.

Key:
[1] = tested on: non replicating phase of M. tuberculosis (H37Rv with a plasmid with an acetimidase promoter driving a luciferase gene); experiment: microbe, parasite or virus in culture; format: cell-based; conditions: non replicating M. tuberculosis H37Rv luciferase strain; for MIC: Mycobacterium tuberculosis, read-out: LORA (TB growth inhibition, MIC)
[2] = tested on: H37Rv strain of M. tuberculosis; experiment: Alamar Blue Susceptibility Test (MABA); format: cell-based; conditions: H37Rv strain of M. tuberculosis, Alamar Blue; for MIC: Mycobacterium tuberculosis, read-out: MABA (TB growth inhibition, colourimetric assay)

Row | Compound | MIC [1] | MIC [2] | LORA (TB growth inhibition, MIC) [1] | MABA (TB growth inhibition, colourimetric assay) [2]
1 | CC(C)(Nc1nc(N2CCCCC2)nc2ccccc12)c1ccccc1 [Compound 53, N-(2-Phenylpropan-2-yl)-2-(piperidin-1-yl)quinazolin-4-amine] | 10 to 50 µM (≈ 3.46 to 17.3 µg/mL) | < 10 µM |  | 
2 | Cc1ccc(CNc2nc(N3CCCCC3)nc3ccccc23)cc1 [Compound 43, N-(4-Methylbenzyl)-2-(piperidin-1-yl)quinazolin-4-amine] | 10 to 50 µM (≈ 3.32 to 16.6 µg/mL) | < 10 µM |  | 
3 | FC(F)(F)c1ccc(CCNc2nc(N3CCCCC3)nc3ccccc23)cc1 [Compound 105, 2-(Piperidin-1-yl)-N-(4-(trifluoromethyl)phenethyl)quinazolin-4-amine] | < 10 µM | < 10 µM |  | 
4 | C[C@@H](Nc1nc(N2CCCCC2)nc2ccccc12)c1ccc2ccccc2c1 [Compound 100, (R)—N-(1-(Naphthalen-2-yl)ethyl)-2-(piperidin-1-yl)quinazolin-4-amine hydrochloride] | 10 to 50 µM | < 10 µM |  | 
5 | Clc1ccc(CNc2nc(N3CCc4ccccc4C3)nc3ccccc23)cc1 [Compound 106, N-(4-Chlorobenzyl)-2-(3,4-dihydroisoquinolin-2(1H)-yl)quinazolin-4-amine hydrochloride] | < 10 µM | < 10 µM |  | 
6 | Fc1ccc(CNc2nc(N3CCCCC3)nc3ccccc23)cc1F [Compound 116, N-(3,4-Difluorobenzyl)-2-(piperidin-1-yl)quinazolin-4-amine hydrochloride] | 10 to 50 µM | < 10 µM |  | 
7 | C[C@@H](Nc1nc(N2CCCCC2)nc2ccccc12)c1cccc2ccccc12 [Compound 99, (R)—N-(1-(Naphthalen-1-yl)ethyl)-2-(piperidin-1-yl)quinazolin-4-amine hydrochloride] | 10 to 50 µM | < 10 µM |  | 
8 | c1ccc(CNc2nc(N3CCCCC3)c3ccccc3n2)cc1 [Compound 24, N-Benzyl-4-(piperidin-1-yl)quinazolin-2-amine] | 10 to 50 µM (≈ 3.18 to 15.9 µg/mL) | 10 to 50 µM (≈ 3.18 to 15.9 µg/mL) |  | 
9 | c1ccc(CCNc2nc(N3CCCCC3)nc3ccccc23)cc1 [Compound 33, N-Phenethyl-2-(piperidin-1-yl)quinazolin-4-amine] | 10 to 50 µM (≈ 3.32 to 16.6 µg/mL) | < 10 µM |  | 
10 | CCC(CC)(Nc1nc(N2CCCC2)nc2ccccc12)c1ccccc1 [Compound 124, N-(3-Phenylpentan-3-yl)-2-(pyrrolidin-1-yl)quinazolin-4-amine] | 10 to 50 µM (≈ 3.61 to 18 µg/mL) | < 10 µM |  | 
11 | Cc1ccc(CNc2nc(NCc3ccc(Cl)cc3)c3ccccc3n2)cc1 [Compound 76, N^4-(4-Chlorobenzyl)-N^2-(4-methylbenzyl)quinazoline-2,4-diamine] | 10 to 50 µM (≈ 3.89 to 19.4 µg/mL) | < 10 µM |  | 
12 | c1coc(CNc2nc(N3CCCCC3)nc3ccccc23)c1 [Compound 13, N-(Furan-2-ylmethyl)-2-(piperidin-1-yl)quinazolin-4-amine] | 10 to 50 µM (≈ 3.08 to 15.4 µg/mL) | < 10 µM |  | 
13 | c1csc(CNc2nc(N3CCCCC3)nc3ccccc23)c1 [Compound 48, 2-(Piperidin-1-yl)-N-(thiophen-2-ylmethyl)quinazolin-4-amine] | 10 to 50 µM (≈ 3.24 to 16.2 µg/mL) | < 10 µM |  | 
14 | FC(F)(F)c1ccc(CNc2nc(N3CCc4ccccc4C3)nc3ccccc23)cc1 [Compound 114, 2-(3,4-Dihydroisoquinolin-2(1H)-yl)-N-(4-(trifluoromethyl)benzyl)quinazolin-4-amine hydrochloride] | < 10 µM | < 10 µM |  | 
15 | C[C@@H](Nc1nc(N2CCCCC2)nc2ccccc12)c1ccc(F)cc1 [Compound 98, (R)—N-(1-(4-Fluorophenyl)ethyl)-2-(piperidin-1-yl)quinazolin-4-amine hydrochloride] | 10 to 50 µM | < 10 µM |  | 
16 | CN(C)c1ccc(CNc2nc(N3CCCCC3)nc3ccccc23)cc1 [Compound 62, N-(4-(Dimethylamino)benzyl)-2-(piperidin-1-yl)quinazolin-4-amine] | 10 to 50 µM (≈ 3.61 to 18.1 µg/mL) | < 10 µM |  | 
17 | C[C@@H](Nc1nc(N2CCCCC2)nc2ccccc12)c1ccc(Cl)cc1 [Compound 96, (R)—N-(1-(4-Chlorophenyl)ethyl)-2-(piperidin-1-yl)quinazolin-4-amine hydrochloride] | 10 to 50 µM | < 10 µM |  | 
18 | c1ccc2c(NC3C4CC5CC(C4)CC3C5)nc(N3CCOCC3)nc2c1 (centres unmarked) [Compound 19, 2-Morpholino-N-(1-[2′-adamantyl])quinazolin-4-amine] |  |  | +++ (10-50 μM=+++) | +++ (10-50 μM=+++)
19 | FC(F)(F)c1cccc(CNc2nc(N3CCCCC3)nc3ccccc23)c1 [Compound 49, 2-(Piperidin-1-yl)-N-(3-(trifluoromethyl)benzyl)quinazolin-4-amine] | 10 to 50 µM (≈ 3.86 to 19.3 µg/mL) | < 10 µM |  | 
20 | N#Cc1ccc(CNc2nc(N3CCCCC3)nc3ccccc23)cc1 [Compound 92, 4-((2-(Piperidin-1-yl)quinazolin-4-ylamino)methyl)benzonitrile] | 50 to 128 µM (≈ 17.2 to 44 µg/mL) | < 10 µM |  | 
21 | CC(Nc1nc(N2CCN(C(=O)C3CCCC3)CC2)nc2ccccc12)c1ccccc1 (centres unmarked) [Compound 21, Cyclopentyl(4-(4-(1-phenylethylamino)quinazolin-2-yl)piperazin-1-yl)methanone] | 10 to 50 µM (≈ 4.3 to 21.5 µg/mL) | 10 to 50 µM (≈ 4.3 to 21.5 µg/mL) |  | 
22 | CC(Nc1nc(N2CCOCC2)nc2ccccc12)c1ccccc1 (centres unmarked) [Compound 9, 2-Morpholino-N-(1-phenylethyl)quinazolin-4-amine] | 50 to 128 µM (≈ 16.7 to 42.8 µg/mL) | 50 to 128 µM (≈ 16.7 to 42.8 µg/mL) |  | 
